{"source": "paper PMC7505949", "about": "“Structure-Guided Designing and Evaluation of Peptides Targeting Bacterial Transcription” (Frontiers in Bioengineering and Biotechnology, 2020)", "key": {"[1]": {"assay": "Solubility in water and aqueous buffer", "format": "physicochemical", "description": "(§1) As the interaction interface between RNAP β1β2 domain and the transcription factor (CarD^NTD and TRCF-RID) ([Westblade et al., 2010]; [Gulten and Sacchettini, 2013]) is relatively large, flat, solvent-exposed, and devoid of the binding pocket, it is challenging to design small molecule-based inhibitors. We therefore aimed to design the peptide-based RNAP β/transcription factor inhibitors by selecting the key residues involved in the interaction at the conserved PPI interface between RNAP β and transcription factor complex. The sequence and molecular weight of the designed peptides are mentioned in Table 1. PEP-FOLD3.1 ([Lamiable et al., 2016]), an online server, was used to predict the de novo structures of the designed peptides by running 100 simulations for each peptide. PEP-FOLD3.1 provides the information in the form of models which are generated by OPEP (Optimized Potential for Efficient structure Prediction) energy. The topmost model with the lowest OPEP score having minimum energy and maximum stability for each peptide was selected for further computational analysis. The designed peptides were 7–8 amino acids in length and were commercially synthesized. The peptides were analyzed for their stability and solubility. All the peptides were soluble in water as well as in aqueous buffer with a solubility of > 10 mM."}, "[2]": {"assay": "Storage stability in water by LC-MS", "format": "physicochemical", "conditions": "stored for over a year at 4°C, LC-MS (C18), observed vs calculated molecular weight", "procedure": "The stability of all the designed peptides was analyzed using Liquid chromatography-mass spectrometry (LC-MS) using Agilent Technologies (model G6550A). […] Peptide 3 was injected in the C18 column equilibrated in a positive mode at a flow rate of 0.5 mL/min using water as a mobile phase.\nas §1, with “The topmost model with the lowest OPEP score having minimum energy and maximum stability for each peptide was selected for further computational analysis. The designed peptides were 7–8 amino acids in length and were commercially synthesized.” left out, “All the peptides were soluble in water as well as in aqueous buffer with a solubility of > 10 mM.” left out"}}, "note": "Peptide text beside a SMILES is read from it.", "data": [{"smiles": "CC[C@H](C)[C@H](NC(=O)[C@H](CCC(=O)O)NC(=O)CNC(=O)[C@@H](N)[C@@H](C)O)C(=O)N[C@@H](CCCCN)C(=O)N[C@@H](CO)C(=O)N[C@@H](CCC(N)=O)C(=O)N[C@H](C(=O)O)[C@@H](C)O", "note": "[Peptide 2] (H-TGEIKSQT-OH)", "values": [{"measurement": "Solubility (in words)", "setting": "[1]", "result": "soluble in aqueous buffer"}, {"measurement": "Stability on storage", "setting": "[2]", "result": "highly stable"}]}]}
